Measurements: patent US20030064380A1, “Anergy-regulated molecules” (The Center For Blood Research, Inc., priority 2001, published 2003)

Test system: D5 Th1 T cell line
Experiment: nucleic acid expression profile of D5 Th1 T cell line stimulated with 500 nM ionomycin, 1 μM CsA plus ionomycin or 20 nM PMA plus ionomycin; 19K chip, second replicate
Type: cell-based, murine
Parameters: expression level of Msa.15983.0_f_at / expression level of Msa.1669.0_f_at / expression level of Msa.18713.0_g_at / expression level of D86609_s_at / expression level of TC19211_at / expression level of TC21156_at / expression level of TC24045_at / expression level of TC30384_g_at / expression level of TC3225_at / expression level of TC38978_at / expression level of TC39080_at / expression level of TC17495_at: unit not given here
Protocol: D5 or primary T cells from NFAT1−/− or wild type DO11.10 transgenic mice were stimulated for 2, 6 or 16 hours with 500 nM ionomycin, 20 nM PMA plus 500 nM ionomycin, or 1 μM CsA plus 500 nM ionomycin. Total RNA was isolated with an RNeasy kit (QIAGEN). Ten μg of total RNA was quantitatively amplified and biotin-labeled as described (Byrne et al., (2000) “Preparation of mRNA for Expression Monitoring” Current Protocols in Molecular Biology (John Wiley & Sons, Inc.) pp. 22.22.21-22.22.13). […] Chips were washed, stained with SA-PE and read using an Affymetrix GeneChip® scanner and accompanying gene expression software. Labeled bacterial RNAs of known concentration were spiked into each chip hybridization mix to generate an internal standard curve, allowing normalization between chips and conversion of raw hybridization intensity values to mRNA frequency (mRNA molecules per million).
Nucleic acid expression profiles were obtained from a T cell line at multiple time points and in various T cell states. The D5 Th1 T cell line was stimulated in three different ways: 1) ionomycin alone (e.g., causing the regulatory factor NFAT to move from the cytoplasm to the nucleus); 2) ionomycin+PMA (e.g., causing both NFAT and the transcription factor AP-1 to enter the nucleus); 3) ionomycin +cyclosporin A (CsA) (e.g., preventing NFAT from entering the nucleus in response to ionomycin). […] Cells were stimulated for 0, 2, 6, and 16 hours. […] The experiment was done twice (i.e., with two replicates, Rep. 1 and Rep. 2). Nucleic acid expression at the 2, 6 and 16 hour timepoints was compared to nucleic acid expression at 0 hours.
The nucleic acid expression data was stored in a computer database. A database query was used to identify all nucleic acids that were deemed “increasing” or “decreasing” in response to ionomycin (relative to the 0 hour sample) in at least one timepoint in Rep. 1, and the nucleic acids were also deemed “increasing” or “decreasing” in response to ionomycin in Rep. 2.
To test the hypothesis that NFAT in the absence of AP-1 and NFKB induced a genetic program of anergy, genes induced in D5 T cells by ionomycin stimulation alone were evaluated (FIGS. 1, 2 and 6). Samples from D5 cells stimulated with ionomycin plus CsA, which blocks anergy induction, and ionomycin plus PMA, which pharmacologically mimic complete stimulation through the TCR and CD28 were included. RNA was prepared from unstimulated D5 T cells and from cells stimulated for 2, 6 or 16 h under these three conditions, and gene transcription profiles were evaluated using Affymetrix oligonucleotide arrays (FIG. 6A).

## C[C@H](CCC(=O)O)C[C@H](C)C[C@H](C)C(=O)/C=C(\O)[C@H](C)C[C@H](C)C/C=C/[C@@H](C)[C@@H](O)[C@@H](C)[C@@H](O)C[C@@H]1CC[C@@](C)([C@H]2CC[C@@](C)([C@@H](C)O)O2)O1 [Ionomycin, ionomycin]
2 h
  expression level of D86609_s_at: 34
  expression level of ET63436_at: 113
  expression level of MIP1-B_at: 110.5
  expression level of Msa.11439.0_s_at: 19
  expression level of Msa.15983.0_f_at: 44
  expression level of Msa.1669.0_f_at: 27
  expression level of Msa.18713.0_g_at: 83
  expression level of Msa.21745.0_s_at: 8
  expression level of TC3225_at: 34
  expression level of TC14671_g_at: 7
  expression level of TC16364_at: 4
  expression level of TC16828_at: 4
  expression level of TC17132_at: 121
  expression level of TC17495_at: 9
  expression level of TC17558_at: 41
  expression level of TC18221_at: 9
  expression level of TC19211_at: 48
  expression level of TC21156_at: 20
  expression level of TC23346_s_at: 5
  expression level of TC23450_s_at: 16
  expression level of TC24045_at: 15
  expression level of TC24067_at: 9
  expression level of TC25965_at: 42
  expression level of TC27326_g_at: 3
  expression level of TC29889_at: 11
  expression level of TC30384_g_at: 39
  expression level of TC30935_at: 93
  expression level of TC30992_s_at: 28
  expression level of TC31681_at: 56
  expression level of TC33206_at: 45
  expression level of TC33833_at: 23
  expression level of TC34186_at: 40
  expression level of TC36089_at: 156
  expression level of TC36583_at: 29
  expression level of TC37631_at: 18
  expression level of TC38094_at: 18
  expression level of TC38978_at: 6
  expression level of TC39012_at: 64
  expression level of TC39080_at: 14
  expression level of TC39762_at: 16
  expression level of TC40487_g_at: 16
  expression level of TC41014_at: 23
  expression level of U44731_s_at: 69
  expression level of X67914_s_at: 53
  expression level of Z31202_s_at: 10
  expression level of aa144045_s_at: 24
  expression level of aa174748_at: 31
  expression level of c81206_rc_at: 15
  expression level of k00083_s_at: 41
  expression level of x12531_s_at: 68
6 h
  expression level of D86609_s_at: 34
  expression level of ET63436_at: 60
  expression level of MIP1-B_at: 85.5
  expression level of Msa.11439.0_s_at: 22
  expression level of Msa.15983.0_f_at: 60
  expression level of Msa.1669.0_f_at: 32
  expression level of Msa.18713.0_g_at: 58
  expression level of Msa.21745.0_s_at: 12
  expression level of TC3225_at: 22
  expression level of TC14671_g_at: 15
  expression level of TC16364_at: 5
  expression level of TC16828_at: 17
  expression level of TC17132_at: 155
  expression level of TC17495_at: 12
  expression level of TC17558_at: 57
  expression level of TC18221_at: 17
  expression level of TC19211_at: 22
  expression level of TC21156_at: 25
  expression level of TC23346_s_at: 12
  expression level of TC23450_s_at: 21
  expression level of TC24045_at: 15
  expression level of TC24067_at: 19
  expression level of TC25965_at: 35
  expression level of TC27326_g_at: 4
  expression level of TC29889_at: 10
  expression level of TC30384_g_at: 29
  expression level of TC30935_at: 60
  expression level of TC30992_s_at: 9
  expression level of TC31681_at: 31
  expression level of TC33206_at: 19
  expression level of TC33833_at: 23
  expression level of TC34186_at: 38
  expression level of TC36089_at: 149
  expression level of TC36583_at: 26
  expression level of TC37631_at: 12
  expression level of TC38094_at: 10
  expression level of TC38978_at: 3
  expression level of TC39012_at: 42
  expression level of TC39080_at: 11
  expression level of TC39762_at: 15
  expression level of TC40487_g_at: 8
  expression level of TC41014_at: 18
  expression level of U44731_s_at: 54
  expression level of X67914_s_at: 39
  expression level of Z31202_s_at: 17
  expression level of aa144045_s_at: 17
  expression level of aa174748_at: 19
  expression level of c81206_rc_at: 13
  expression level of k00083_s_at: 45
  expression level of x12531_s_at: 49
16 h
  expression level of D86609_s_at: 45
  expression level of ET63436_at: 107
  expression level of MIP1-B_at: 97.5
  expression level of Msa.11439.0_s_at: 36
  expression level of Msa.15983.0_f_at: 56
  expression level of Msa.1669.0_f_at: 50
  expression level of Msa.18713.0_g_at: 49
  expression level of Msa.21745.0_s_at: 12
  expression level of TC3225_at: 37
  expression level of TC14671_g_at: 30
  expression level of TC16364_at: 10
  expression level of TC16828_at: 31
  expression level of TC17132_at: 126
  expression level of TC17495_at: 12
  expression level of TC17558_at: 98
  expression level of TC18221_at: 25
  expression level of TC19211_at: 22
  expression level of TC21156_at: 31
  expression level of TC23346_s_at: 13
  expression level of TC23450_s_at: 22
  expression level of TC24045_at: 25
  expression level of TC24067_at: 31
  expression level of TC25965_at: 50
  expression level of TC27326_g_at: 5
  expression level of TC29889_at: 13
  expression level of TC30384_g_at: 53
  expression level of TC30935_at: 86
  expression level of TC30992_s_at: 12
  expression level of TC31681_at: 22
  expression level of TC33206_at: 12
  expression level of TC33833_at: 23
  expression level of TC34186_at: 50
  expression level of TC36089_at: 165
  expression level of TC36583_at: 31
  expression level of TC37631_at: 29
  expression level of TC38094_at: 16
  expression level of TC38978_at: 8
  expression level of TC39012_at: 77
  expression level of TC39080_at: 24
  expression level of TC39762_at: 37
  expression level of TC40487_g_at: 13
  expression level of TC41014_at: 33
  expression level of U44731_s_at: 25
  expression level of X67914_s_at: 36
  expression level of Z31202_s_at: 45
  expression level of aa144045_s_at: 22
  expression level of aa174748_at: 21
  expression level of c81206_rc_at: 39
  expression level of k00083_s_at: 72
  expression level of x12531_s_at: 84
